Results reported in patent publication US20030129629A1, “Methods and compositions for the identification, assessment, prevention, and therapy of human cancers” (Millennium Pharmaceuticals, Inc., priority 2000, published 2003).
Like-named read-outs stand apart in the source and are kept apart here.

What was measured:
[1] = system: 60 cancer cell lines (NCI 60 cancer cell line series); conditions: cited from earlier work
[2] = system: 60 cancer cell lines (NCI 60 cancer cell line series); test: NCI-DTP in vitro cancer screen, sulforhodamine B (SRB) growth inhibition, 48 hour exposure; assay type: cell-based, human
Summary of the method: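 Potency is given as mean −log{GI50} from dose–response curves, manually binned into Low, Medium or High sensitivity. Sixty NCI-DTP tumour lines were treated 48 h with a duplicate, five-dose, ten-fold dilution series, and growth read by SRB staining of cell mass.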

SMILES: COc1cccc2c1C(=O)c1c(O)c3c(c(O)c1C2=O)C[C@@](O)(C(C)=O)C[C@@H]3O[C@H]1C[C@H](N)[C@H](O)[C@H](C)O1 [Daunorubicin]
- −Log (GI50) ([1]; Breast MCF7/ADRr CL5002): 5.3
- −Log (GI50) ([1]; Colon COLO-250 CL4010): 6.8
- −Log (GI50) ([1]; NSCLC NCI-H226 CL1013): 7.5
- −Log (GI50) ([1]; Renal UO-31 CL9004): 6.4
- classification of cell line as Low(1), Medium(2), High(3) sensitivity to compound ([2]; Breast BT-549 CL5013): 1
- classification of cell line as Low(1), Medium(2), High(3) sensitivity to compound ([2]; Breast MCF7(I) CL5001): 3
- classification of cell line as Low(1), Medium(2), High(3) sensitivity to compound ([2]; Breast MCF7/ADRr CL5002): 1
- classification of cell line as Low(1), Medium(2), High(3) sensitivity to compound ([2]; Breast MDA-MB-231 CL5005): 1
- classification of cell line as Low(1), Medium(2), High(3) sensitivity to compound ([2]; Breast MDA-MB-435 CL5011): 1
- classification of cell line as Low(1), Medium(2), High(3) sensitivity to compound ([2]; Breast MDA-N CL5012): 1
- classification of cell line as Low(1), Medium(2), High(3) sensitivity to compound ([2]; Breast T-47D CL5014): 2
- classification of cell line as Low(1), Medium(2), High(3) sensitivity to compound ([2]; CNS SF-268 CL12014): 2
- classification of cell line as Low(1), Medium(2), High(3) sensitivity to compound ([2]; CNS SF-295 CL12015): 2
- classification of cell line as Low(1), Medium(2), High(3) sensitivity to compound ([2]; CNS SNB-19 CL12002): 2
- classification of cell line as Low(1), Medium(2), High(3) sensitivity to compound ([2]; CNS SNB-75(I) CL12005): 2
- classification of cell line as Low(1), Medium(2), High(3) sensitivity to compound ([2]; CNS U251(I) CL12009): 2
- classification of cell line as Low(1), Medium(2), High(3) sensitivity to compound ([2]; Colon COLO-250 CL4010): 1
- classification of cell line as Low(1), Medium(2), High(3) sensitivity to compound ([2]; Colon HCC-2998 CL4002): 1
- classification of cell line as Low(1), Medium(2), High(3) sensitivity to compound ([2]; Colon HCT-15 CL4015): 1
- classification of cell line as Low(1), Medium(2), High(3) sensitivity to compound ([2]; Colon HCT-116 CL4003): 2
- classification of cell line as Low(1), Medium(2), High(3) sensitivity to compound ([2]; Colon HT29(I) CL4001): 2
- classification of cell line as Low(1), Medium(2), High(3) sensitivity to compound ([2]; Colon SW-620 CL4009): 2
- classification of cell line as Low(1), Medium(2), High(3) sensitivity to compound ([2]; Leukemia CCRF-CEM(I) CL7003): 3
- classification of cell line as Low(1), Medium(2), High(3) sensitivity to compound ([2]; Leukemia HL-60(I) CL7008): 3
- classification of cell line as Low(1), Medium(2), High(3) sensitivity to compound ([2]; Leukemia MOLT-4 CL7006): 3
- classification of cell line as Low(1), Medium(2), High(3) sensitivity to compound ([2]; Leukemia SR CL7019): 3
- classification of cell line as Low(1), Medium(2), High(3) sensitivity to compound ([2]; Melanoma M14 CL10014): 1
- classification of cell line as Low(1), Medium(2), High(3) sensitivity to compound ([2]; Melanoma MALME-3M CL10002): 2
- classification of cell line as Low(1), Medium(2), High(3) sensitivity to compound ([2]; Melanoma SK-MEL-5 CL10007): 2
- classification of cell line as Low(1), Medium(2), High(3) sensitivity to compound ([2]; Melanoma SK-MEL-28 CL10008): 1
- classification of cell line as Low(1), Medium(2), High(3) sensitivity to compound ([2]; Melanoma UACC-62 CL10020): 2
- classification of cell line as Low(1), Medium(2), High(3) sensitivity to compound ([2]; Melanoma UACC-257 CL10021): 1
- classification of cell line as Low(1), Medium(2), High(3) sensitivity to compound ([2]; NSCLC A549/ATCC CL1004): 2
- classification of cell line as Low(1), Medium(2), High(3) sensitivity to compound ([2]; NSCLC EKVX CL1008): 1
- classification of cell line as Low(1), Medium(2), High(3) sensitivity to compound ([2]; NSCLC HOP-62 CL1026): 2
- classification of cell line as Low(1), Medium(2), High(3) sensitivity to compound ([2]; NSCLC HOP-92 CL1029): 2
- sensitivity classification Low(1)/Medium(2)/High(3) ([2]; NSCLC NCI-H23(I) CL1001): 2
- classification of cell line as Low(1), Medium(2), High(3) sensitivity to compound ([2]; NSCLC NCI-H226 CL1013): 2
- sensitivity classification Low(1)/Medium(2)/High(3) ([2]; NSCLC NCI-H332M CL1017): 1
- sensitivity classification Low(1)/Medium(2)/High(3) ([2]; NSCLC NCI-H460 CL1021): 3
- sensitivity classification Low(1)/Medium(2)/High(3) ([2]; NSCLC NCI-H522 CL1003): 2
- sensitivity classification Low(1)/Medium(2)/High(3) ([2]; Ovarian IGROV1 CL6010): 2
- sensitivity classification Low(1)/Medium(2)/High(3) ([2]; Ovarian OVCAR-3 CL6001): 1
- sensitivity classification Low(1)/Medium(2)/High(3) ([2]; Ovarian OVCAR-4 CL6002): 1
- sensitivity classification Low(1)/Medium(2)/High(3) ([2]; Ovarian OVCAR-5 CL6003): 1
- sensitivity classification Low(1)/Medium(2)/High(3) ([2]; Ovarian OVCAR-8 CL6005): 2
- sensitivity classification Low(1)/Medium(2)/High(3) ([2]; Prostate DU-145 CL11003): 2
- sensitivity classification Low(1)/Medium(2)/High(3) ([2]; Prostate PC-3(I) CL11001): 2
- sensitivity classification Low(1)/Medium(2)/High(3) ([2]; Renal 786-0 CL9018): 2
- sensitivity classification Low(1)/Medium(2)/High(3) ([2]; Renal A498 CL9013): 1
- sensitivity classification Low(1)/Medium(2)/High(3) ([2]; Renal ACHN CL9023): 2
- sensitivity classification Low(1)/Medium(2)/High(3) ([2]; Renal CAKI-1 CL9015): 2
- sensitivity classification Low(1)/Medium(2)/High(3) ([2]; Renal RXF-393 CL9016): 1
- sensitivity classification Low(1)/Medium(2)/High(3) ([2]; Renal SN12C CL9008): 2
- sensitivity classification Low(1)/Medium(2)/High(3) ([2]; Renal TK10 CL9024): 1
- sensitivity classification Low(1)/Medium(2)/High(3) ([2]; Renal UO-31 CL9004): 1

SMILES: COc1cccc2c1C(=O)c1c(O)c3c(c(O)c1C2=O)C[C@@](O)(C(=O)CO)C[C@@H]3OC1CC(N)CC(C)O1.Cl (stereo partly shown) [Deoxydoxorubicin]
- −Log (GI50) ([1]; CNS SF-268 CL12014): 7.3
- −Log (GI50) ([1]; CNS U251(I) CL12009): 7.6
- −Log (GI50) ([1]; Colon HT29(I) CL4001): 7.5
- −Log (GI50) ([1]; Melanoma UACC-62 CL10020): 7.6
- −Log (GI50) ([1]; NSCLC HOP-92 CL1029): 7.4
- −Log (GI50) ([1]; Ovarian SK-OV-3 CL6011): 7.3
- −Log (GI50) ([1]; Prostate DU-145 CL11003): 7.6
- classification of cell line as Low(1), Medium(2), High(3) sensitivity to compound ([2]; Breast BT-549 CL5013): 2
- classification of cell line as Low(1), Medium(2), High(3) sensitivity to compound ([2]; Breast MCF7/ADRr CL5002): 1
- classification of cell line as Low(1), Medium(2), High(3) sensitivity to compound ([2]; Breast MDA-N CL5012): 2
- classification of cell line as Low(1), Medium(2), High(3) sensitivity to compound ([2]; CNS SF-268 CL12014): 2
- classification of cell line as Low(1), Medium(2), High(3) sensitivity to compound ([2]; CNS SF-295 CL12015): 2
- classification of cell line as Low(1), Medium(2), High(3) sensitivity to compound ([2]; CNS SF-539 CL12016): 2
- classification of cell line as Low(1), Medium(2), High(3) sensitivity to compound ([2]; CNS SNB-19 CL12002): 2
- classification of cell line as Low(1), Medium(2), High(3) sensitivity to compound ([2]; CNS SNB-75(I) CL12005): 2
- classification of cell line as Low(1), Medium(2), High(3) sensitivity to compound ([2]; CNS U251(I) CL12009): 2
- classification of cell line as Low(1), Medium(2), High(3) sensitivity to compound ([2]; Colon COLO-250 CL4010): 2
- classification of cell line as Low(1), Medium(2), High(3) sensitivity to compound ([2]; Colon HCT-15 CL4015): 1
- classification of cell line as Low(1), Medium(2), High(3) sensitivity to compound ([2]; Colon HT29(I) CL4001): 2
- classification of cell line as Low(1), Medium(2), High(3) sensitivity to compound ([2]; Colon KM12 CL4017): 2
- classification of cell line as Low(1), Medium(2), High(3) sensitivity to compound ([2]; Leukemia CCRF-CEM(I) CL7003): 2
- classification of cell line as Low(1), Medium(2), High(3) sensitivity to compound ([2]; Leukemia K562(I) CL7005): 2
- classification of cell line as Low(1), Medium(2), High(3) sensitivity to compound ([2]; Leukemia RPMI-8226(I) CL7010): 2
- classification of cell line as Low(1), Medium(2), High(3) sensitivity to compound ([2]; Leukemia SR CL7019): 3
- classification of cell line as Low(1), Medium(2), High(3) sensitivity to compound ([2]; Melanoma LOX IMVI CL10001): 2
- classification of cell line as Low(1), Medium(2), High(3) sensitivity to compound ([2]; Melanoma M14 CL10014): 2
- classification of cell line as Low(1), Medium(2), High(3) sensitivity to compound ([2]; Melanoma MALME-3M CL10002): 2
- classification of cell line as Low(1), Medium(2), High(3) sensitivity to compound ([2]; Melanoma SK-MEL-28 CL10008): 1
- sensitivity classification Low(1)/Medium(2)/High(3) ([2]; NSCLC NCI-H23(I) CL1001): 2
- sensitivity classification Low(1)/Medium(2)/High(3) ([2]; NSCLC NCI-H522 CL1003): 2
- sensitivity classification Low(1)/Medium(2)/High(3) ([2]; Ovarian IGROV1 CL6010): 2
- sensitivity classification Low(1)/Medium(2)/High(3) ([2]; Ovarian OVCAR-3 CL6001): 2
- sensitivity classification Low(1)/Medium(2)/High(3) ([2]; Ovarian OVCAR-4 CL6002): 2
- sensitivity classification Low(1)/Medium(2)/High(3) ([2]; Ovarian OVCAR-8 CL6005): 2
- sensitivity classification Low(1)/Medium(2)/High(3) ([2]; Ovarian SK-OV-3 CL6011): 2
- sensitivity classification Low(1)/Medium(2)/High(3) ([2]; Prostate DU-145 CL11003): 2
- sensitivity classification Low(1)/Medium(2)/High(3) ([2]; Prostate PC-3(I) CL11001): 2
- sensitivity classification Low(1)/Medium(2)/High(3) ([2]; Renal A498 CL9013): 2
- sensitivity classification Low(1)/Medium(2)/High(3) ([2]; Renal SN12C CL9008): 2
- sensitivity classification Low(1)/Medium(2)/High(3) ([2]; Renal TK10 CL9024): 1
- sensitivity classification Low(1)/Medium(2)/High(3) ([2]; Renal UO-31 CL9004): 1
